The text below walks through data of PMC6695681, “Hydrophobic Interactions Drive Binding between Vascular Endothelial Growth Factor-A (VEGFA) and Polyphenolic Inhibitors” (Molecules, 2019).

Where “and” joins values, the source holds several entries; their conditions need not be identical. Equal values may be shown once. Read-outs that look alike come from different tables or passages of the source.

Assay [1] deals with T1, VEGF-165 (Homo sapiens, UniProt P15692).
T1 construct: purchased ReliaTech GmbH (Wolfenbüttel, Germany)
T1 sequence (P15692 27-191 isoform P15692-4 limits assumed): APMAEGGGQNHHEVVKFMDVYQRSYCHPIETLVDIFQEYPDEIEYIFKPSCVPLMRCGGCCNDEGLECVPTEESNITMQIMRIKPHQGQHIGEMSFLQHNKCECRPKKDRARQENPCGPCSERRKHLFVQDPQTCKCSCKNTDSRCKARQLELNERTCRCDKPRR
Kind of assay: Surface plasmon resonance binding of polyphenols to immobilised VEGF165.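 On all read-outs here: running buffer PBST with 1% DMSO, sensorgrams double referenced against a VEGF-free reference cell and blank injections, kinetics fitted to a 1:1 Langmuir binding model.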 As to conditions: for dissociation rate at 20 °C compared with 37 °C: 20 °C vs 37 °C, Figure 3B; for koff: read-out: dissociation rate constant kd. On the technique in general: In SPR one partner is held on a chip, and binding of the other changes the refractive index at the surface.

In assay [2] the test system is VEGF-dependent VEGFR2 activation in HUVEC cells. Also noted: method as in Cerezo et al. [1]. As to conditions: ref Cerezo et al. [1], read-out: IC50 (concentration causing 50% inhibition of VEGF activation in HUVEC cells), cited from earlier work.
Assay [3] deals with T1, VEGF-165. In words: Far-UV circular dichroism of VEGF secondary structure upon binding EGCG. The protocol:
Circular dichroism (CD) in the far UV range (180–260 nm) was used to determine whether the secondary structure of VEGF changed upon binding EGCG. Circular dichroism spectra were measured for a fixed concentration of VEGF-165 (0.22 nmoles in 50 µL) with increasing amounts of EGCG (0, 1.36, 5.45 and 10.91 nmoles) and the spectra obtained are shown in Figure 4. Analysis of the spectra indicated the predominant features in the secondary structure of VEGF165 were random coil (unordered) and β-sheet, followed by smaller percentages of α-helix and turns. After adding EGCG at a mole ratio of 1:50 VEGF:EGCG, the VEGF secondary structure was altered with increases of 65% and 33% in α-helix and turns respectively, a reduction in the percentage of β-strands of 88%, and only a 3% reduction in the predominant unordered structure.
Circular Dichroism (CD) spectra were recorded using a Jasco J-715 spectropolarimeter (Easton, MD, USA) over a wavelength range of 185–260 nm in PBS solvent with 1% ethanol, using a quartz demountable CD cell with a path length of 0.1 mm. Averages of three runs of the protein spectra were collected a 37 °C at a scan speed of 20 nm/min and a band width of 1.0 nm. To account for any background effect the protein in buffer alone, the EGCG molecule in buffer alone, and the buffer alone were also measured. After background correction the spectra were converted to units of delta epsilon. Dichroweb analysis server http://dichroweb.cryst.bbk.ac.uk was used to analyse and estimate on line the secondary structure contents.
Background: Circular dichroism is the unequal absorption of left and right circularly polarised light.

For a further assay, the target named is T2, VEGF (Homo sapiens, UniProt P15692).
T2 construct: purchased ReliaTech GmbH (Wolfenbüttel, Germany)
T2 sequence (P15692 27-191 isoform P15692-4 limits assumed): T1 sequence (P15692 27-191 isoform P15692-4 limits assumed)
Kind of assay: SDS-page gels of VEGF treated with polyphenol, reducing and non-reducing conditions. The text has this: Binding occurs when intermolecular forces are established between VEGF and the phenolic ligand. […] Therefore, the interactions between VEGF and inhibitor polyphenols are likely to be non-covalent in nature. These forces could be the result of various interactions between the protein, the ligand, and the environment and are likely to be predominantly based on electrostatic (H bonding) and hydrophobic forces.
Figure 2 SDS-page gels of control (VEGF) and treatments (VEGF and apple procyanidin fraction dp4 or EGCG under (A) reducing conditions and (B) Non-reducing conditions.

Where [4] appears, read: PBST, 37 °C, read-out: equilibrium constant KD.
Where [5] appears, read: PBST, 37 °C, read-out: association rate constant ka.
[6] abbreviates: PBST, 37 °C (control runs of Table 2).

As for `O=c1c(O)c(-c2cc(O)c(O)c(O)c2)oc2cc(O)cc(O)c12` [Myricetin], on VEGF-165 [1] (setting [4]), the Kd – broadly, the equilibrium constant for the complex coming apart – came out at 4460 nM. For the same molecule, the figures for the IC50 in assay [2] (listed as myricetin) and in assay [2] were 121 nM and 120 nM, respectively.

Turning to `Oc1cc(O)c2c(c1)OC(c1ccc(O)c(O)c1)C(O)C2c1c(O)cc(O)c2c1OC(c1ccc(O)c(O)c1)C(O)C2c1c(O)cc(O)c2c1OC(c1ccc(O)c(O)c1)C(O)C2c1c(O)cc(O)c2c1OC(c1ccc(O)c(O)c1)C(O)C2c1c(O)cc(O)c2c1OC(c1ccc(O)c(O)c1)C(O)C2c1c(O)cc(O)c2c1OC(c1ccc(O)c(O)c1)C(O)C2c1c(O)cc(O)c2c1OC(c1ccc(O)c(O)c1)C(O)C2c1c(O)cc(O)c2c1OC(c1ccc(O)c(O)c1)C(O)C2c1c(O)cc(O)c2c1OC(c1ccc(O)c(O)c1)C(O)C2` (stereo not shown) [Procyanidin Dp9], the “dissociation rate at 20 °C compared with 37 °C” value at VEGF-165 [1] was “higher at 20 °C than at 37 °C”. Moreover, the equilibrium dissociation constant (Kd) at VEGF-165 [1] (setting [4]) was 341 nM.

For the molecule `Oc1cc(O)c2c(c1)O[C@H](c1ccc(O)c(O)c1)[C@@H](O)C2` [(+) Catechin], the kon on VEGF-165 [1] (setting [5]) was 131 M⁻¹ s⁻¹. Besides, at VEGF-165 [1] (PBST, 37 °C), the koff was determined as 0.00399 s⁻¹. For the same molecule, at VEGF-165 [1] (setting [4]), the Kd is 25000 nM and 24600 nM. Also, in assay [2], the IC50 was 215000 nM.

With `Oc1cc(O)c2c(c1)O[C@H](c1ccc(O)c(O)c1)[C@H](O)C2` [(-) Epicatechin], the kon at VEGF-165 [1] (setting [5]) came out at 323 M⁻¹ s⁻¹. The koff at VEGF-165 [1] (PBST, 37 °C) was 0.000696 s⁻¹. At VEGF-165 [1] (setting [4]), the Kd came out at 2710 nM.

Turning to `Oc1cc(O)c2c(c1)OC(c1ccc(O)c(O)c1)C(O)C2c1c(O)cc(O)c2c1OC(c1ccc(O)c(O)c1)C(O)C2c1c(O)cc(O)c2c1OC(c1ccc(O)c(O)c1)C(O)C2` (stereo not shown) [Procyanidin Dp3], the “dissociation rate at 20 °C compared with 37 °C” value on VEGF-165 [1] was “higher at 20 °C than at 37 °C”. Also, the kon on VEGF-165 [1] (setting [5]) worked out at 2910 M⁻¹ s⁻¹. Besides, the koff on VEGF-165 [1] (PBST, 37 °C) was 0.00093 s⁻¹. Besides, the Kd on VEGF-165 [1] (setting [4]) turned out to be 351 nM. Further, the IC50 in assay [2] is 780 nM.

As for `Oc1cc(O)c2c(c1)OC(c1ccc(O)c(O)c1)C(O)C2c1c(O)cc(O)c2c1OC(c1ccc(O)c(O)c1)C(O)C2` (stereo not shown) [Procyanidin Dp2], the kon at VEGF-165 [1] (setting [5]) came out at 548 M⁻¹ s⁻¹. At VEGF-165 [1] (PBST, 37 °C), the koff was determined as 0.001 s⁻¹. Moreover, the Kd on VEGF-165 [1] (setting [4]) is 637 nM. Further, the IC50 in assay [2] is 52600 nM.

As to `O=C(O)c1cc(O)c(O)c(O)c1` [Gallic acid], the kon on VEGF-165 [1] (setting [5]) was 166 M⁻¹ s⁻¹. The koff on VEGF-165 [1] (PBST, 37 °C) was determined as 0.000391 s⁻¹. Moreover, the Kd on VEGF-165 [1] (setting [4]) was found to be 5520 nM.

Consider `O=c1c(O)c(-c2ccc(O)c(O)c2)oc2cc(O)c(O)c(O)c12` [Quercetagetin], for which the kon at VEGF-165 [1] (setting [5]) came out at 858 M⁻¹ s⁻¹. Also, the koff on VEGF-165 [1] (PBST, 37 °C) worked out at 0.000826 s⁻¹. Also, the Kd on VEGF-165 [1] (setting [4]) came out at 934 nM. Also, the IC50 in assay [2] was 100 nM.

In the case of `O=C(O[C@@H]1Cc2c(O)cc(O)cc2O[C@@H]1c1ccc(O)c(O)c1)c1cc(O)c(O)c(O)c1` [Epicatechin gallate (ECG), Epicatechin gallate], the kon on VEGF-165 [1] (setting [5]) amounted to 8240 M⁻¹ s⁻¹. For the same molecule, at VEGF-165 [1] (PBST, 37 °C), the koff came out at 0.000633 s⁻¹. The equilibrium dissociation constant (Kd) on VEGF-165 [1] (setting [4]) is 35 nM and 34.8 nM. In assay [2], the IC50 was 160 nM.

Regarding `O=C(O[C@@H]1Cc2c(O)cc(O)cc2O[C@@H]1c1cc(O)c(O)c(O)c1)c1cc(O)c(O)c(O)c1` [Epigallocatechin gallate (EGCG), Epigallocatechin gallate], the “dissociation rate at 20 °C compared with 37 °C” value on VEGF-165 [1] was “higher at 20 °C than at 37 °C”. Moreover, the kd stood at 0.00037 ± 4e-05 s⁻¹ at VEGF-165 [1] (PBST + 0.5 M NaCl, 37 °C); 0.00033 ± 4e-05 s⁻¹ on VEGF-165 [1] (PBST + 1 M NaCl, 37 °C); 0.00036 ± 2.1e-05 s⁻¹ on VEGF-165 [1] (PBST + 1 M urea, 37 °C); 0.0017 ± 7e-05 s⁻¹ at VEGF-165 [1] (PBST + 10% ethanol, 37 °C); 0.00026 ± 5.2e-05 s⁻¹ on VEGF-165 [1] (PBST + 10 M ethylene glycol, 37 °C); 0.0002 ± 5e-05 s⁻¹ on VEGF-165 [1] (PBST + 30% ethanol, 37 °C). In addition, at VEGF-165 [1] (setting [6]), the kd was 0.00068 ± 2.9e-06 s⁻¹ and 0.00088 ± 5.2e-05 s⁻¹ and 0.00072 ± 5e-05 s⁻¹. For the same molecule, the Kd came out at 60 nM on VEGF-165 [1] (PBST + 0.5 M NaCl, 37 °C, read-out: KD); 35 nM on VEGF-165 [1] (PBST + 1 M NaCl, 37 °C, read-out: KD); 71 nM at VEGF-165 [1] (PBST + 1 M urea, 37 °C, read-out: KD); 810 nM on VEGF-165 [1] (PBST + 10% ethanol, 37 °C, read-out: KD); 420 nM at VEGF-165 [1] (PBST + 10 M ethylene glycol, 37 °C, read-out: KD); 470 nM at VEGF-165 [1] (PBST + 30% ethanol, 37 °C, read-out: KD). Moreover, the dissociation constant (Kd) at VEGF-165 [1] (PBST, 37 °C (control runs of Table 2), read-out: KD) is 110 nM and 170 nM and 140 nM; at VEGF-165 [1] (setting [4]), 112 nM. Moreover, the kon came out at 5180 ± 92 M⁻¹ s⁻¹ on VEGF-165 [1] (PBST + 0.5 M NaCl, 37 °C, read-out: ka); 6500 ± 260 M⁻¹ s⁻¹ on VEGF-165 [1] (PBST + 1 M NaCl, 37 °C, read-out: ka); 5160 ± 100 M⁻¹ s⁻¹ on VEGF-165 [1] (PBST + 1 M urea, 37 °C, read-out: ka); 2460 ± 60 M⁻¹ s⁻¹ on VEGF-165 [1] (PBST + 10% ethanol, 37 °C, read-out: ka); 796 ± 45 M⁻¹ s⁻¹ on VEGF-165 [1] (PBST + 10 M ethylene glycol, 37 °C, read-out: ka); 482 ± 21 M⁻¹ s⁻¹ at VEGF-165 [1] (PBST + 30% ethanol, 37 °C, read-out: ka). The kon at VEGF-165 [1] (PBST, 37 °C (control runs of Table 2), read-out: ka) is 6147 ± 52 M⁻¹ s⁻¹; at VEGF-165 [1] (setting [5]) it was 6300 M⁻¹ s⁻¹. Besides, the ka at VEGF-165 [1] (setting [6]) was 5184 ± 64 M⁻¹ s⁻¹ and 6052 ± 64 M⁻¹ s⁻¹. Besides, at VEGF-165 [1] (PBST, 37 °C), the koff was 0.000625 s⁻¹. Also, the “position of the negative band in CD far UV spectra” value on VEGF-165 [3] (EGCG mixed with VEGF, 201 nm for VEGF alone) stood at 211 nm. Also, the “time taken by conformational changes in VEGF” value on VEGF-165 [3] (after mixing with EGCG) was “less than 90 s”. Besides, the “increase in turns of VEGF secondary structure” value at VEGF-165 [3] (mole ratio 1:50 VEGF:EGCG) is reported as 33%. At VEGF-165 [3] (mole ratio 1:50 VEGF:EGCG), the “increase in α-helix of VEGF secondary structure” value is listed as 65%. At VEGF-165 [3] (mole ratio 1:50 VEGF:EGCG), the “reduction in the percentage of β-strands of VEGF” value came out at 88%. Moreover, the “reduction in the predominant unordered structure of VEGF” value on VEGF-165 [3] (mole ratio 1:50 VEGF:EGCG) came to 3%. In addition, the “change in migration of treated VEGF on SDS page gels” value on VEGF is listed as “no change in migration”. The IC50 in assay [2] (listed as EGCG) is 88 nM; in assay [2], 90 nM.
